Key:
[1] = test system: neuropathic pain after CCI of the sciatic nerve; experiment: tolerance development in the CCI model (chronic treatment); format: in vivo, mice; settings: for tolerance development / loss of antihyperalgesic activity: 9-day treatment period in neuropathic mice
Experimental: Tolerance development: Possible development of tolerance against the antihyperalgesic effect of HZ166 was investigated in the CCI model. Starting from day 7 after CCI surgery, HZ166 at the dose of 16 mg/kg or vehicle were administered intraperitoneally once daily for 9 consecutive days. On day 10, each group (vehicle and HZ166) was subdivided in 2 subgroups: one received vehicle and the other HZ166 at the dose of 16 mg/kg. After the last injection, mechanical sensitivity was assessed for 3 hours.

[2] = test system: inflammatory hyperalgesia induced by zymosan A; experiment: zymosan A model of inflammatory pain, mechanical sensitization; format: in vivo, mice; settings: 16 mg/kg i.p., 48 hours after zymosan A; n=6
Experimental: Inflammatory pain is assessed in the zymosan A model. See Hargreaves, K., Dubner, R., Brown, F., Flores, C. & Joris, J. A new and sensitive method for measuring thermal nociception in cutaneous hyperalgesia. Pain 32, 77-88 (1988). Inflammatory pain is induced by subcutaneous injection of zymosan A (0.06 mg in mice; 1 mg in rats) into one hindpaw. In mice, 0.06 mg of zymosan A suspended in […] of 0.9% NaCl is injected subcutaneously into the plantar side of the left hindpaw. The model is also used in rats, but 1 mg of zymosan A is used. Heat hyperalgesia is assessed 24 h and 6 h after induction of inflammation in mice and rats, respectively.
Pain Studies—Inflammatory pain: Inflammatory pain was studied in the zymosan A model (Meller and Gebhart, 1997). 0.06 mg zymosan A (Sigma Chemicals) suspended in 20 μl 0.9% NaCl was injected subcutaneously into the plantar side of the left hindpaw. Mechanical sensitization was assessed 48 hours after induction of inflammation.
Pain Studies—Mechanical sensitization: Mechanical sensitivity was assessed with dynamic von Frey filaments (IITC, Woodland Hills, Calif.). […]
Statistical Analysis: For all different doses and vehicle, baseline paw withdrawal thresholds/latencies on day 7 after nerve ligation or on day 2 after zymosan A injection were subtracted from all later withdrawal thresholds and the area under the curve (AUC) was calculated. […]

[3] = test system: motor coordination of mice; experiment: rotarod test (motor impairment); format: in vivo; settings: HZ166 16 and 48 mg/kg, gabapentin 10 and 30 mg/kg, i.p., 60 min after treatment
Experimental: Motor impairment: A possible impairment of motor function was analyzed in the rotarod test. Mice were trained on the rotarod (diameter 3 cm, 2 rpm) for 2 days. Animals capable of remaining on the rotarod in the absence of treatment for at least 2 min were selected for drug testing. On the test day, the latency to fall off the rod was recorded before and 60 minutes after treatment with vehicle, HZ166 or gabapentin.

Cyp = Cyp profile
seizures = settings: Rivas et al., 2009, cited from earlier work
[4] = test system: thermal hyperalgesia after CCI of the sciatic nerve; experiment: chronic constriction injury (CCI) model, heat hyperalgesia (plantar test); format: in vivo, mice; settings: 16 mg/kg i.p.
Experimental: In addition, the pro- or antinociceptive effects of the compounds of the present invention are analyzed in the chronic constriction injury (CCI) model. The GABAA receptor subunit selective test compounds of the present invention are analysed in the CCI model in 7-8-week-old C57BL/6 mice. See Bennett, G. J. & Xie, Y. K. A peripheral mononeuropathy in rat that produces disorders of pain sensation like those seen in man. […] Seven to eight week old mice are anesthetized with isofluran. Unilateral constriction injury of the left sciatic nerve just proximal to the trifurcation is performed with three loose ligatures. […] Heat hyperalgesia, cold allodynia and mechanical sensitization are assessed 7-9 days after surgery. Mechanical sensitivity is assessed with electronic von Frey filaments (IITC).
Heat hyperalgesia is assessed by measuring paw withdrawal latencies on exposure to a defined radiant heat stimulus are measured with a commercially available apparatus (Plantar Test; Ugo Basile). […]
Pain studies—Neuropathic pain: HZ166 and gabapentin were analyzed in the chronic constriction injury (CCI) model. […] Heat hyperalgesia and mechanical sensitization were assessed 7-16 days after surgery.
Pain Studies—Heat hyperalgesia: Paw withdrawal latencies upon exposure to a defined radiant heat stimulus were measured using a commercially available apparatus (Plantar Test, Ugo Basile, Comerio, Italy). […]

[5] = test system: Formalin Pain (mouse, i.p.); experiment: T22 formalin test (chemically induced pain); format: in vivo
Experimental: This elicits a distinct bi-phasic behavioral profile in response to the formalin injection characterized by licking of the affected paw, and the number of licks is measured as a proxy for perceived pain. The first (acute) phase is thought to correspond to the direct stimulation of peripheral fibers while the second (inflammatory) phase is caused by the release of inflammatory mediators from the damaged tissue and nerve endings. Thus, this model is ideally suited for efficacy of an investigational AED against the acute and chronic hyper-responsive neuronal discharges following activation of peripheral nerve fibers.
The results of the formalin test are given both as raw data (“Response”) and in an aggregate, analyzed form (“Analysis”). In the Response section, each Trial involves sixteen animals, eight controls given an i.p. injection of vehicle and eight given the compound at a specified dose. Thus, for multiple doses of the compound, there will also be multiple control groups. The data recorded for each animal is the amount of time(s) spent licking the affected hind paw in a two minute period. These two minute periods occur at five minute intervals and continue for 45 minutes. […] From this plot, we can then determine the area under the curve (AUC) for each animal during both the acute and inflammatory stages. The AUC for each phase is shown in the analysis section of the data sheet for both control and drug-treated animals The AUC for each drug-treated animal is compared to the average result from the control group, yielding an average percent of control (reported with the SEM and p value).

## C#Cc1ccc2c(c1)C(c1ccccn1)=NCc1c(C(=O)OCC)ncn1-2 [HZ-166, 8-Acetylenyl-6-pyridin-2-yl-4H-benzo[f]imidazo[1,5-a][1,4]diazepine-3-carboxylic acid ethyl ester]
[1]; 16 mg/kg once daily for 9 days from day 7 after CCI, test on day 10
  analgesic activity in mice chronically exposed to HZ166 versus drug-naïve mice: virtually the same
[1]
  tolerance development / loss of antihyperalgesic activity: did not develop tolerance
[1]; listed as HZ166
  tolerance development / loss of antihyperalgesic activity: no loss
[2]
  AUC of mechanical PWT: 1.55 ± 0.21 g·h
[3]
  interfered with rotarod performance: Neither
Cyp
  Cyp profile: good
seizures
  toxicity: minimal
seizures; at non-sedative doses
  anticonvulsive activity: good anticonvulsive activity
[4]
  time of peak effect on PWLs after administration: 1 h
[4]; 7 days after surgery, n=6
  AUC of PWL, injured paw: 4.33±1.95 s*h
[5]; formalin test, acute phase
  protection at the acute phase of chemically induced pain: significant protection
[5]; mouse, i.p., acute phase, dose 16 (HZ-166), 10 (JY-XHE-053), 1 (XLI-JY-DMH) mg/kg
  Change (% of Control) ± SEM, T22 Formalin Pain, Acute: 66.8 % of Control
[5]; mouse, i.p., inflammatory phase, dose 16 (HZ-166), 10 (JY-XHE-053), 1 (XLI-JY-DMH) mg/kg
  Change (% of Control) ± SEM, T22 Formalin Pain, inflammatory: 63 % of Control
